This note sets out measurements from patent publication US20050142104A1, “Methods of using and compositions comprising PDE4 modulators for the treatment and management of asbestos-related diseases and disorders” (priority 2003, published 2005).

Data set [1] in a line: Clinical studies in unresectable or relapsed mesothelioma patients. Particulars: 400 mg as a continuous oral daily dose; mesothelioma patients not responding to conventional therapy. Format: in vivo, human. Here is the method: Clinical trials with the administration of a PDE4 modulator in an amount of from about 1 mg to about 1,000 mg, from about 1 mg to about 500 mg, or from about 1 mg to about 250 mg per day are conducted in patients with asbestosis, malignant mesothelioma, or malignant pleural effusion mesothelioma syndrome. In a specific embodiment, patients receive about 1 mg to about 1000 mg/day of 3-(3,4-dimethoxy-phenyl)-3-(1-oxo-1,3-dihydro-isoindol-2-yl)-propionamide alone or in combination with vinorelbine. Patients who experience clinical benefit are permitted to continue on treatment.
Other clinical studies are performed using 3-(3,4-dimethoxy-phenyl)-3-(1-oxo-1,3-dihydro-isoindol-2-yl)-propionamide in unresectable or relapsed mesothelioma patients that have not responded to conventional therapy. In one embodiment, 3-(3,4-dimethoxy-phenyl)-3-(1-oxo-1,3-dihydro-isoindol-2-yl)-propionamide is administered in an amount of about 1 mg to about 1,000 mg/day to the patients. Treatment with 400 mg as a continuous oral daily dose is well-tolerated.

Another data set concerns TNF-α production. Kind of data set: In vitro studies: inhibition of TNF-α production following LPS-stimulation of human PBMC and human whole blood. Format: cell-based. As to conditions: comparator thalidomide. Here is the method: In a specific embodiment, the pharmacological properties of 3-(3,4-dimethoxy-phenyl)-3-(1-oxo-1,3-dihydro-isoindol-2-yl)-propionamide are characterized in in vitro studies. Studies examine the effects of the compound on the production of various cytokines. Inhibition of TNF-α production following LPS-stimulation of human PBMC and human whole blood by the compound is investigated in vitro. The IC50's of the compound for inhibiting production of TNF-α are measured. […] The pharmacological effects of 3-(3,4-dimethoxy-phenyl)-3-(1-oxo-1,3-dihydro-isoindol-2-yl)-propionamide may derive from its action as an inhibitor of the generation of inflammatory cytokines.

As to `COc1ccc(C(CC(N)=O)N2Cc3ccccc3C2=O)cc1OC` (centres unmarked) [3-(3,4-Dimethoxy-phenyl)-3-(1-oxo-1,3-dihydro-isoindol-2-yl)-propionamide], in data set [1], the tolerability entry is on record as “well-tolerated”. Moreover, in the data set with TNF-α production, the “pharmacological activity profile, potency relative to thalidomide” value is given as “five to fifty times more potent than thalidomide”.
